In assay [1] the target is T1, Endothelin-B Receptor (Homo sapiens, UniProt P24530).
T1 construct: expressed in transfected cells; host or cells: Sf9 insect cells (membrane fraction)
T1 sequence (P24530 27-442): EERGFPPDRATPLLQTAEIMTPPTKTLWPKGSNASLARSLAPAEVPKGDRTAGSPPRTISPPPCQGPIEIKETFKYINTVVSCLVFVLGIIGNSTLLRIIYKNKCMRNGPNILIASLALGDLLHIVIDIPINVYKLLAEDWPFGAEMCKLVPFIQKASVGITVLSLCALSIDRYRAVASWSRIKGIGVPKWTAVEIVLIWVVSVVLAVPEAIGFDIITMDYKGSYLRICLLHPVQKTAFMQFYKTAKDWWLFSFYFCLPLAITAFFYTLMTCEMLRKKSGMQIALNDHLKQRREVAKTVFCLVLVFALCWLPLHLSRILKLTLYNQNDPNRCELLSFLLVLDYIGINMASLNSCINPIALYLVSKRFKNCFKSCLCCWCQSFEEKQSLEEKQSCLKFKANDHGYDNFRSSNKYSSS
As to the kind of experiment: Endothelin Assay Test, [125I]endothelin-1 binding to insect cell (Sf9) membrane fraction expressing human ETB receptor. The following applies: human ETB receptor expressed, 25°C for 60 minutes, PMB = 50%, read-out: IC 50 Endothelin-B Receptor (human). The method, then:
(§1) Endothelin (ET) receptors were prepared as follows. An insect cell (Sf9) membrane fraction wherein human endothelin-A (ETA) was expressed and that wherein endothelin-B (ETB) was expressed were diluted with an assay buffer [comprising 20 mM of Tris-HCl, 2 mM of EGTA (ethylene glycol bis(2-aminoethyl ether)tetraacetic acid), 5 mM of magnesium acetate, 0.1% of BSA (bovine serum albumin), 0.03% of NaN3, 0.5 mM of PMSF (phenylmethylsulfonyl fluoride), 20 micrograms/ml of leupeptin, 4 micrograms/ml of E-64 (manufactured by the Peptide Institute, Japan) and 1 microgram/ml of pepstatin; pH 7.2] to make 1.4 micrograms/ml and 0.7 microgram/ml for the insect cell (Sf 9) membrane fraction wherein a human ETA receptor was expressed and for that wherein a human ETB receptor was expressed, respectively. Each 100 microliters of them were taken out and 2 microliters of 5nM [^125I]endothelin-1 was added thereto. A dimethyl sulfoxide solution (3 microliters) of the sample was added thereto and the mixture was incubated at 25°C for 60 minutes. Further, in order to measure the maximum binding (B0) and the nonspecific binding (NSB), a lot to which […] or […] of 10^-5M of endothelin-1 in dimethyl sulfoxide was added was incubated as well. An assay buffer suspended with 0.05% CHAPS (3-[(3-cholamidopropyl)di-methylammonio]-1-propanesulfonate, 1.5 ml) was added and the mixture was filtered through a GF/F glass fiber filter (trade name of Whatman, England) followed by washing with 1.5 ml of the same buffer.
(§2) The radioactivity of the filter was counted by a γ -counter and determined PMB by the same way described in Test Example 1. The value wherein PMB = 50% was calculated and expressed as an IC50.

Assay [2] has as its target T2, Endothelin-A Receptor (Homo sapiens, UniProt P25101).
T2 construct: expressed in transfected cells; host or cells: Sf9 insect cells (membrane fraction)
T2 sequence (P25101 21-427): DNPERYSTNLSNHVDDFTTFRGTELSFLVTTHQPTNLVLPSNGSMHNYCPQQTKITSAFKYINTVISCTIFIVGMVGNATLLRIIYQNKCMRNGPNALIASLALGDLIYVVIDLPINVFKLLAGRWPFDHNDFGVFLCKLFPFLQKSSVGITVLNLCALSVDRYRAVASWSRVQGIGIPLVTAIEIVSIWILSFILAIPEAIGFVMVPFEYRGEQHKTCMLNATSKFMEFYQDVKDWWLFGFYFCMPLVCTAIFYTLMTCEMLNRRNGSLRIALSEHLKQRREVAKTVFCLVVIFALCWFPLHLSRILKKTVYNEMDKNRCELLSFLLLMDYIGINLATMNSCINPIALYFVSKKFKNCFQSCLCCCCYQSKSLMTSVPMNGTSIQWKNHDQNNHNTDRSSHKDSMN
Description: Endothelin Assay Test, [125I]endothelin-1 binding to insect cell (Sf9) membrane fraction expressing human ETA receptor. The following applies: human ETA receptor expressed, 25°C for 60 minutes, PMB = 50%, read-out: IC 50 Endothelin-A Receptor (human). The procedure: as §1, §2

Assay [3] deals with T3, Endothelin-B Receptor (Bos taurus, UniProt P28088).
T3 construct: a bovine cerebral membrane fraction for an endothelin-B receptor assay; from tissue; host or cells: bovine cerebral membrane fraction
T3 sequence (P28088 27-441): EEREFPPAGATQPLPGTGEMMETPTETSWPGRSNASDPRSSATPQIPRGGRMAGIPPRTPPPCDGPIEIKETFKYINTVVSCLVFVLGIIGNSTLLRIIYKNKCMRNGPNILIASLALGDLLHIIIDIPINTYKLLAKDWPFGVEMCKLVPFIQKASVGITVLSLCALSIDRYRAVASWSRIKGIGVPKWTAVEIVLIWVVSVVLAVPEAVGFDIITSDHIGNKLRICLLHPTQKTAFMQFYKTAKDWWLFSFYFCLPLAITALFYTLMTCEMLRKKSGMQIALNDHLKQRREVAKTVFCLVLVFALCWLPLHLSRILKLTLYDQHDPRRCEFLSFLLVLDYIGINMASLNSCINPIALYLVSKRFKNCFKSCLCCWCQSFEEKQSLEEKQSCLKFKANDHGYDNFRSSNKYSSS
As to the kind of experiment: Endothelin Receptor Assay, [125I]endothelin-1 binding to bovine cerebral membrane fraction. The following applies: 25°C for 60 minutes, concentration wherein PMB was 50%. The procedure: (§3) A pig ventricular muscle membrane fraction for an endothelin-A receptor assay and a bovine cerebral membrane fraction for an endothelin-B receptor assay were diluted with an assay buffer [comprising 20 mM of Tris-HCl, 2 mM of EGTA (ethylene glycol bis(2-aminoethyl ether)tetraacetic acid), 5 mM of magnesium acetate, 0.1% of BSA (bovine serum albumin), 0.03% of NaN3, 0.5 mM of PMSF (phenylmethylsulfonyl fluoride), 20 micrograms/ml of leupeptin, 4 micrograms/ml of E-64 (manufactured by the Peptide Institute, Japan) and 1 microgram/ml of pepstatin; pH 7.2] to 12 µg/ml and 180 µg/ml, respectively.
(§4) To each 100 microliter of them was added 5 nM [^125I] endothelin-1 (2 microliters). A solution (3 microliters) of the sample was added and the mixture was incubated at 25°C for 60 minutes. In order to measure the maximum binding (B0) and the nonspecific bonding (NSB), a lot to which dimethyl sulfoxide (3 microliters) or a solution (3 microliters) of 10^-5M of endothelin in dimethyl sulfoxide was added was incubated as well. […] The radioactivity of the filter was counted by a γ -counter and a calculation was conducted in accordance with the following formula (1) whereby a percent maximum binding (hereinafter, referred to as PMB) was determined. […]

For assay [4], the target named is T4, Endothelin-A Receptor (Sus scrofa, UniProt Q29010).
T4 construct: A pig ventricular muscle membrane fraction for an endothelin-A receptor assay; from tissue; host or cells: pig ventricular muscle membrane fraction
T4 sequence (Q29010 21-427): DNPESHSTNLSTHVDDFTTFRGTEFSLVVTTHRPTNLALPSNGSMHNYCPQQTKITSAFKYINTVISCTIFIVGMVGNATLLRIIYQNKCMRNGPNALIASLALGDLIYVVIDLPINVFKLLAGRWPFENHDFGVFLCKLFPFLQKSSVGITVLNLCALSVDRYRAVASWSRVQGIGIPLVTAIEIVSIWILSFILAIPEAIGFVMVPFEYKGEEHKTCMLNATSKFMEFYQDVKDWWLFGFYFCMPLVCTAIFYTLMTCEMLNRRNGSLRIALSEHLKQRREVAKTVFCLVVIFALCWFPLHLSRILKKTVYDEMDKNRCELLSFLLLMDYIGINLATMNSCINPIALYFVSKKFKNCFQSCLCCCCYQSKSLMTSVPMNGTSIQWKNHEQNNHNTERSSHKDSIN
Description: Endothelin Receptor Assay, [125I]endothelin-1 binding to pig ventricular muscle membrane fraction. The following applies: 25°C for 60 minutes, concentration wherein PMB was 50%, read-out: IC50 Endothelin-A Receptor (pigs). The method, then:
as §3, §4

The structures appear in SMILES notation. pIC50: −log10 of the molar value.

Turning to `COc1ccc(-c2sc3c(c2C)c(=O)n(CC(=O)O)c(=O)n3Cc2ccccc2OC)cc1` [Compound 105], the pIC50 at Endothelin-B Receptor [1] is 4.92; at Endothelin-A Receptor [2], 5.72.
Regarding `COc1ccc(-c2sc3c(c2C)c(=O)n(CC(=O)O)c(=O)n3Cc2cc(OC)ccc2OC)cc1` [Compound 125], the figures for the pIC50 on Endothelin-B Receptor [1] and at Endothelin-A Receptor [2] were 4.59 and 5.54, respectively.
Turning to `COCOc1ccc(-c2sc3c(c2C)c(=O)n(CC(=O)O)c(=O)n3Cc2ccccc2OC)cc1` [Compound 131, 2,4(1H,3H)-dioxo-5-methyl-6-(4-methoxymethoxyphenyl)-1-(2-methoxybenzyl)thieno[2,3-d]pyrimidine-3-acetic acid], the pIC50 is 5.62 on Endothelin-B Receptor [1] and 6.52 on Endothelin-A Receptor [2].
With `COc1ccccc1Cn1c(=O)n(CC(=O)O)c(=O)c2c(C)c(-c3ccc(OCC(N)=O)cc3)sc21` [Compound 143], the pIC50 on Endothelin-B Receptor [1] is 4.48; at Endothelin-A Receptor [2] it was 5.60.
In the case of `COc1cccc(Cn2c(=O)n(CC(=O)O)c(=O)c3cc(-c4ccccc4)sc32)c1` [Compound 99], the pIC50 was 4.41 at Endothelin-B Receptor [3] and 4.92 at Endothelin-A Receptor [4].
For `CSc1ccccc1Cn1c(=O)n(CC(=O)O)c(=O)c2c(C)c(-c3ccc4c(c3)OCO4)sc21` [Compound 156], the pIC50 was 4.80 at Endothelin-B Receptor [1] and 5.59 on Endothelin-A Receptor [2].
In the case of `COc1ccccc1Cn1c(=O)n(CC(=O)O)c(=O)c2c(C)c(-c3ccccc3)sc21` [Compound 102], the pIC50 was 5.12 on Endothelin-B Receptor [3] and 5.89 at Endothelin-A Receptor [4].
On to `COc1ccc(-c2sc3c(c2C)c(=O)n(CC(=O)O)c(=O)n3Cc2ccccc2SC)cc1` [Compound 115, 2,4(1H,3H)-dioxo-5-methyl-6-(4-methoxyphenyl)-1-(2-methylthiobenzyl)thieno[2,3-d]pyrimidine-3-acetic acid], for which the figures for the pIC50 at Endothelin-B Receptor [1] and on Endothelin-A Receptor [2] were 5.17 and 6.15, respectively.
With `CSc1ccccc1Cn1c(=O)n(CC(=O)O)c(=O)c2c(C)c(-c3ccc(-n4cccc4)cc3)sc21` [Compound 173, 2,4(1H,3H)-dioxo-1-(2-methylthiobenzyl)-6-[4-(1-pyrrolyl)phenyl]-5-methylthieno[2,3-d]pyrimidine-3-acetic acid], the pIC50 at Endothelin-B Receptor [1] was 5.60; on Endothelin-A Receptor [2], 5.68.
As to `CSCOc1ccc(-c2sc3c(c2C)c(=O)n(CC(=O)O)c(=O)n3Cc2ccccc2SC)cc1` [Compound 145, 2,4(1H,3H)-dioxo-5-methyl-6-(4-methylthiomethoxyphenyl)-1-(2-methylthiobenzyl)thieno[2,3-d]pyrimidine-3-acetic acid], the pIC50 is 6.18 at Endothelin-B Receptor [1] and 7.18 on Endothelin-A Receptor [2].
On the same counts, the results for `COc1ccccc1Cn1c(=O)n(CC(=O)O)c(=O)c2c(C)c(-c3ccc(OCCO)cc3)sc21` [Compound 130] are 4.92 and 5.92.
Take `COc1ccc(-c2sc3c(c2C)c(=O)n(CC(=O)O)c(=O)n3Cc2ccccc2C)cc1` [Compound 111]: the pIC50 is 4.85 on Endothelin-B Receptor [1] and 5.74 at Endothelin-A Receptor [2].
As for `CCCOc1ccc(-c2sc3c(c2C)c(=O)n(CC(=O)O)c(=O)n3Cc2ccccc2SC)cc1` [Compound 146, 2,4(1H,3H)-dioxo-5-methyl-1-(2-methylthiobenzyl)-6-(4-propoxyphenyl)thieno[2,3-d]pyrimidine-3-acetic acid], the pIC50 at Endothelin-B Receptor [1] was 5.59; at Endothelin-A Receptor [2] it was 6.60.
The corresponding values for `COc1ccccc1Cn1c(=O)n(CC(=O)O)c(=O)c2c(C)c(-c3ccc(OCSC)cc3)sc21` [Compound 140, 2,4(1H,3H)-dioxo-5-methyl-6-(4-methylthiomethoxyphenyl)-1-(2-methoxybenzyl)thieno[2,3-d]pyrimidine-3-acetic acid] are 4.82 and 6.62.
`CSc1ccccc1Cn1c(=O)n(CC(=O)O)c(=O)c2c(C)c(-c3ccc(OCC(C)=O)cc3)sc21` [Compound 148, 2,4(1H,3H)-dioxo-5-methyl-1-(2-methylthiobenzyl)-6-[4-(2-oxopropoxy)phenyl]thieno[2,3-d]pyrimidine-3-acetic acid]: the pIC50 at Endothelin-B Receptor [1] was 5.15; at Endothelin-A Receptor [2], 6.40.
As to `COCOc1ccc(-c2sc3c(c2C)c(=O)n(CC(=O)O)c(=O)n3Cc2ccccc2SC)cc1` [Compound 144, 2,4(1H,3H)-dioxo-5-methyl-6-(4-methoxymethoxyphenyl)-1-(2-methylthiobenzyl)thieno[2,3-d]pyrimidine-3-acetic acid], the pIC50 on Endothelin-B Receptor [1] is 6.04; on Endothelin-A Receptor [2] it was 7.07.

These data come from patent EP0640606B1, “Thienopyrimidine derivatives, their production and use” (TAKEDA CHEMICAL INDUSTRIES, LTD., priority 1993, dated 1995).
